Measured values taken from patent US10435379B2, “[4-(1,3,3-trimethyl-2-OXO-3,4-dihydro-1H-quinoxalin-7-yl)phenoxy]ethyloxy compound or salt thereof” (SANTEN PHARMACEUTICAL CO., LTD., priority 2015, dated 2019).

target: Recombinant human GR (Homo sapiens (Human), UniProt P04150); experiment: GR binding activity evaluation test (GR competitive binding assay, fluorescence polarization); details: 20 μM test compound solution, 10 μL/well; 2 mM DEX as positive control; 2 hours at room temperature
Experimental: In order to evaluate a binding activity of the present compound to GR, a GR receptor competitor assay was carried out by a fluorescence polarization method. In the assay, a GR competitive binding assay kit (manufactured by Invitrogen, cat No. P2816) was used for the assay, and a procedure was carried out according to the protocol attached to the kit. Hereinafter, the specific method will be described.
GR screening buffer: A buffer containing 10 mM of potassium phosphate (pH 7.4), 20 mM of sodium molybdate (Na2MoO4), 0.1 mM of ethylene diamine tetraacetic acid (EDTA), 5 mM of dithiothreitol (DTT), 0.1 mM of stabilizing peptide and 2% of dimethylsulfoxide was prepared.
4×GS1 solution: Fluormone™ GS1, which is a fluorescent glucocorticoid ligand, was diluted with GR screening buffer, whereby a 4 nM solution was prepared. […]
5) The plate was incubated in a dark place at room temperature for 2 hours, and fluorescence polarization of each well was measured.
A GR binding ratio (%) was calculated from the following equation. GR binding ratio (%)=100×{1−(fluorescence polarization of test compound solution−average value of fluorescence polarization of positive control solution)/(average value of fluorescence polarization of negative control solution−average value of fluorescence polarization of positive control solution)} (Test Results and Discussion)

Recombinant human GR, sequence (P04150 whole entry): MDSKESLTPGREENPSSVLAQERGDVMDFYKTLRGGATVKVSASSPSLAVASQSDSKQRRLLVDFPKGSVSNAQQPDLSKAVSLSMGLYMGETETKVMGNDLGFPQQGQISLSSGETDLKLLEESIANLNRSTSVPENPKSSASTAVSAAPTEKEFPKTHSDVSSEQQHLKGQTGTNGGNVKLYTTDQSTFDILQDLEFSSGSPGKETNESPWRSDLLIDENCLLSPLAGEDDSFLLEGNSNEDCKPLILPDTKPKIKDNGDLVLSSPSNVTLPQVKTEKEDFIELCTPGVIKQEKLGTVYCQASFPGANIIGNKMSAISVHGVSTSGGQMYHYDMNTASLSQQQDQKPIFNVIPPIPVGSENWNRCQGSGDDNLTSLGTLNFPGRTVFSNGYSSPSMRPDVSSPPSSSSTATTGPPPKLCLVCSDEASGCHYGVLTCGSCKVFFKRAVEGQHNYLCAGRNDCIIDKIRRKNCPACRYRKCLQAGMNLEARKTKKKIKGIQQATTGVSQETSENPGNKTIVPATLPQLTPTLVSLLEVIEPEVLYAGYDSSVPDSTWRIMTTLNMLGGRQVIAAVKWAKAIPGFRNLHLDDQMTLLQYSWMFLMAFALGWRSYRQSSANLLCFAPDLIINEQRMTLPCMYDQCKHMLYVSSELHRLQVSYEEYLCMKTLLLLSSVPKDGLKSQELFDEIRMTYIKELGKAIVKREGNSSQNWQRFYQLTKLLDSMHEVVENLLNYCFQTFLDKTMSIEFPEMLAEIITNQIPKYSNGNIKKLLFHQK

GR binding rate (%) | SMILES
>99% | COc1cc(OCC(O)CO)ccc1-c1ccc2c(c1COc1cc(F)ccc1C)N(C)C(=O)C(C)(C)N2 (stereo not drawn) [Compound 4-1, 7-[4-(2,3-dihydroxypropyl)oxy-2-methoxyphenyl]-8-(5-fluoro-2-methylphenoxymethyl)-1,3,3-trimethyl-3,4-dihydro-1H-quinoxalin-2-one]

test system: IL-6 production in human corneal epithelium cell line (HCE-T); experiment: IL-6 production inhibitory action evaluation test after LPS stimulation; type: cell-based; details: 4 hours, 100 μM test compound solution 10 μL/well, DEX treated group = 100
Experimental: To evaluate the action of the present compounds as a GR agonist, IL-6 production inhibitory action in human corneal epithelial cell line after LPS stimulation was examined The IL-6 production was measured by using the HTRF method (Cat No. 62IL6PEB manufactured by Cisbio Bioassays, Inc.) according to the attached protocol. The specific method is described below.
LPS solution: After dissolving LPS in PBS(−), the resulting solution was diluted with a culture solution, whereby an LPS solution with a 1 μg/mL concentration was prepared.
After dissolving the test compound in dimethylsulfoxide, the solution was diluted with a 10% FBS-DMEM/Ham's F12 medium, whereby a 100 μM of the test compound solution was prepared. […] In addition, DEX was similarly dissolved, whereby a 100 μM concentration of the DEX solution was prepared, and an IL-6 production inhibitory ratio of DEX was measured, and used for calculation of Efficacy (% DEX).
Used cells: human corneal epithelium cell line (HCE-T) (RIKEN, Institute of Physical and Chemical Research)
The cells continued to subculture according to this method were used for the test.
(Calculation of IL-6 Production Inhibitory Ratio)
The IL-6 production inhibitory ratio (%) was calculated by the following formula. IL-6 production inhibitory ratio (%)=100×{1−(IL-6 produced amount of each test compound solution−average value of IL-6 produced amount of negative control group)/(average value of IL-6 produced amount of positive control group−average value of IL-6 produced amount of negative control group)}(%)
Further, the IL-6 production inhibitory ratio (Efficacy (% DEX)) when the DEX treated group was made 100 was calculated. Efficacy (% DEX)=100×{(average value of IL-6 production inhibitory ratio of each test compound solution)/(average value of IL-6 production inhibitory ratio of DEX treated group)}(%)
In addition, IC50 was calculated according to a conventional method. IDBS XLfit4 was used for the calculation.

SMILES | IL-6 production inhibitory ratio (% DEX)
CC[C@@H](O)COc1ccc(-c2ccc3c(c2COc2cc(F)ccc2C)N(C)C(=O)C(C)(C)N3)c(OC)c1 [Compound 1-4, (R)-8-(5-fluoro-2-methylphenoxymethyl)-7-[4-(2-hydroxybutyl)oxy-2-methoxyphenyl]-1,3,3-trimethyl-3,4-dihydro-1H-quinoxalin-2-one] | 92 % DEX
COc1cc(OC[C@H](O)CC#N)ccc1-c1ccc2c(c1COc1cc(F)ccc1C)N(C)C(=O)C(C)(C)N2 [Compound 5-1, (R)-7-[4-(3-cyano-2-hydroxypropyl)oxy-2-methoxyphenyl]-8-(5-fluoro-2-methyl-phenoxymethyl)-1,3,3-trimethyl-3,4-dihydro-1H-quinoxalin-2-one] | 98 % DEX
COc1cc(OC[C@@H](O)CC#N)ccc1-c1ccc2c(c1COc1cc(F)ccc1C)N(C)C(=O)C(C)(C)N2 [Compound 5-2, (S)-7-[4-(3-cyano-2-hydroxypropyl)oxy-2-methoxyphenyl]-8-(5-fluoro-2-methyl-phenoxymethyl)-1,3,3-trimethyl-3,4-dihydro-1H-quinoxalin-2-one] | >99 % DEX
COc1cc(OCC(O)CC(=O)OC(C)(C)C)ccc1-c1ccc2c(c1COc1cc(F)ccc1C)N(C)C(=O)C(C)(C)N2 (stereo not drawn) [Compound 7-2, 7-[4-(3-t-butoxycarbonyl-2-hydroxypropyl)oxy-2-methoxyphenyl]-8-(5-fluoro-2-methylphenoxymethyl)-1,3,3-trimethyl-3,4-dihydro-1H-quinoxalin-2-one] | >99 % DEX
COc1ccc(O)cc1-c1ccc2c(c1COc1cc(F)ccc1C)N(C)C(=O)C(C)(C)N2 [Control compound C, 8-(5-fluoro-2-methylphenoxymethyl)-7-(5-hydroxy-2-methoxyphenyl)-1,3,3-trimethyl-3,4-dihydro-1H-quinoxalin-2-one, reference compound] | 71 % DEX
